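The compound was tested at five concentrations on cells cultured in 96-well plates, with a 48-hour exposure period. GI50 = concentration required for 50% inhibition of growth.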 Activity calls are given as the source filed them. Rule as the data show it: active = GI50 up to about 1.1 µM and inactive = higher.
Legend:
Assay in all cases: NCI tumour cell line growth inhibition, 48 h
SF-539 = system: SF-539
HCT-15 = system: HCT-15
RPMI-8226 = system: RPMI-8226
MDA-N = system: MDA-N
BT-549 = system: BT-549
OVCAR-4 = system: OVCAR-4
UACC-62 = system: UACC-62
CCRF-CEM = system: CCRF-CEM
MDA-MB-435 = system: MDA-MB-435
KM12 = system: KM12
SK-MEL-28 = system: SK-MEL-28
OVCAR-8 = system: OVCAR-8
SK-MEL-2 = system: SK-MEL-2
SK-OV-3 = system: SK-OV-3
HT-29 = system: HT-29
NCI/ADR-RES = system: NCI/ADR-RES
A549 = system: A549
PC-3 = system: PC-3
SK-MEL-5 = system: SK-MEL-5
NCI-H460 = system: NCI-H460
MDA-MB-231 = system: MDA-MB-231
OVCAR-5 = system: OVCAR-5
HOP-62 = system: HOP-62
LOX IMVI = system: LOX IMVI
SNB-19 = system: SNB-19
SW-620 = system: SW-620
SNB-75 = system: SNB-75
M14 = system: M14
786-0 = system: 786-0
UO-31 = system: UO-31
HL-60 = system: HL-60
HCT-116 = system: HCT-116
SN12C = system: SN12C
MOLT-4 = system: MOLT-4
ACHN = system: ACHN
SR = system: SR
NCI-H23 = system: NCI-H23
Hs-578T = system: Hs-578T
HOP-92 = system: HOP-92
U-251 = system: U-251
COLO 205 = system: COLO 205
K562 = system: K562
UACC-257 = system: UACC-257
SF-295 = system: SF-295
IGROV-1 = system: IGROV-1
OVCAR-3 = system: OVCAR-3
RXF 393 = system: RXF 393
SF-268 = system: SF-268
EKVX = system: EKVX
A498 = system: A498
NCI-H522 = system: NCI-H522
CAKI-1 = system: CAKI-1
Malme-3M = system: Malme-3M
DU-145 = system: DU-145
T47D = system: T47D
NCI-H226 = system: NCI-H226
TK-10 = system: TK-10
HCC 2998 = system: HCC 2998
MCF7 = system: MCF7

Measured: GI50

CN1CCC2(CC1)SSC1(CCN(C)CC1)S2
inactive: SF-539 > 100 µM | RPMI-8226 > 100 µM | MDA-N > 100 µM | BT-549 23.9 µM | OVCAR-4 > 100 µM | UACC-62 46.7 µM | CCRF-CEM > 100 µM | MDA-MB-435 > 100 µM | KM12 > 100 µM | SK-MEL-28 > 100 µM | OVCAR-8 > 100 µM | SK-MEL-2 > 100 µM | SK-OV-3 > 100 µM | HT-29 > 100 µM | NCI/ADR-RES > 100 µM | A549 > 100 µM | PC-3 > 100 µM | SK-MEL-5 60.5 µM | NCI-H460 > 100 µM | MDA-MB-231 > 100 µM | OVCAR-5 > 100 µM | HOP-62 > 100 µM | LOX IMVI 2.35 µM | SNB-19 69.3 µM | SW-620 > 100 µM | SNB-75 > 100 µM | M14 > 100 µM | 786-0 > 100 µM | UO-31 > 100 µM | HL-60 > 100 µM | HCT-116 > 100 µM | SN12C > 100 µM | MOLT-4 > 100 µM | ACHN > 100 µM | SR > 100 µM | NCI-H23 > 100 µM | Hs-578T > 100 µM | HOP-92 > 100 µM | U-251 > 100 µM | COLO 205 80.2 µM | K562 > 100 µM | UACC-257 > 100 µM | SF-295 > 100 µM
> 100 µM: HCT-15

c1ccc(CC2(c3cc4ccccc4[nH]3)OCCO2)nc1
inactive: SF-539 > 100 µM | IGROV-1 1.95 µM | RPMI-8226 > 100 µM | MDA-N > 100 µM | OVCAR-3 90.6 µM | RXF 393 88.1 µM | SF-268 > 100 µM | BT-549 > 100 µM | UACC-62 > 100 µM | CCRF-CEM 83 µM | MDA-MB-435 > 100 µM | EKVX 92.3 µM | KM12 > 100 µM | SK-MEL-28 > 100 µM | A498 > 100 µM | OVCAR-8 > 100 µM | SK-MEL-2 > 100 µM | SK-OV-3 > 100 µM | HT-29 > 100 µM | NCI/ADR-RES > 100 µM | A549 > 100 µM | PC-3 > 100 µM | SK-MEL-5 > 100 µM | NCI-H460 > 100 µM | NCI-H522 70.8 µM | MDA-MB-231 > 100 µM | OVCAR-5 > 100 µM | HOP-62 > 100 µM | CAKI-1 > 100 µM | LOX IMVI 34.7 µM | Malme-3M 47.6 µM | SNB-19 > 100 µM | DU-145 > 100 µM | SW-620 > 100 µM | T47D > 100 µM | SNB-75 12.1 µM | M14 > 100 µM | 786-0 > 100 µM | UO-31 > 100 µM | HL-60 72.3 µM | HCT-116 > 100 µM | NCI-H226 18 µM | SN12C > 100 µM | MOLT-4 61.1 µM | ACHN > 100 µM | NCI-H23 > 100 µM | Hs-578T 51.5 µM | HOP-92 > 100 µM | U-251 > 100 µM | TK-10 > 100 µM | COLO 205 > 100 µM | K562 50.2 µM | UACC-257 > 100 µM | SF-295 58.1 µM
> 100 µM: HCT-15

O=c1cc(NNc2ccc(F)cc2)[nH]c(=O)[nH]1
inactive: SF-539 21.5 µM | IGROV-1 16.6 µM | RPMI-8226 11 µM | MDA-N 16.4 µM | OVCAR-3 16.4 µM | RXF 393 15.5 µM | SF-268 20 µM | BT-549 13.6 µM | OVCAR-4 9.68 µM | HCC 2998 23.4 µM | UACC-62 15.1 µM | CCRF-CEM 12.9 µM | EKVX 18.3 µM | KM12 11.7 µM | SK-MEL-28 18.3 µM | A498 35.3 µM | OVCAR-8 23.1 µM | SK-MEL-2 21.4 µM | SK-OV-3 39.1 µM | HT-29 16.9 µM | NCI/ADR-RES 28.2 µM | A549 18.3 µM | PC-3 16.6 µM | SK-MEL-5 25.7 µM | NCI-H460 19.4 µM | MDA-MB-231 17.1 µM | OVCAR-5 19.2 µM | HOP-62 17.1 µM | LOX IMVI > 100 µM | Malme-3M 19.8 µM | SNB-19 19.3 µM | DU-145 > 100 µM | SW-620 17.5 µM | T47D 27 µM | SNB-75 12.7 µM | M14 8.85 µM | 786-0 12.5 µM | UO-31 17.9 µM | HL-60 6.65 µM | HCT-116 17.9 µM | NCI-H226 24.6 µM | SN12C 18.2 µM | MOLT-4 19.8 µM | ACHN 17.9 µM | SR 35.1 µM | NCI-H23 29.4 µM | Hs-578T 28.4 µM | U-251 25.6 µM | TK-10 22 µM | COLO 205 16.5 µM | K562 17.8 µM | UACC-257 > 100 µM | SF-295 > 100 µM
16.1 µM: HCT-15

CC1(C)/C(=N\Nc2ccc([N+](=O)[O-])cc2[N+](=O)[O-])C2CCC1C2 (configuration not stated)
inactive: IGROV-1 > 100 µM | RPMI-8226 > 100 µM | MDA-N > 100 µM | OVCAR-3 > 100 µM | MCF7 > 100 µM | SF-268 > 100 µM | BT-549 > 100 µM | OVCAR-4 84.5 µM | UACC-62 > 100 µM | CCRF-CEM > 10 µM | MDA-MB-435 > 100 µM | EKVX > 100 µM | KM12 30.1 µM | SK-MEL-28 > 100 µM | OVCAR-8 > 100 µM | SK-MEL-2 > 100 µM | SK-OV-3 27.7 µM | HT-29 > 100 µM | NCI/ADR-RES > 100 µM | A549 > 100 µM | PC-3 > 100 µM | SK-MEL-5 4.2 µM | NCI-H460 > 100 µM | NCI-H522 > 100 µM | OVCAR-5 > 100 µM | HOP-62 74.5 µM | CAKI-1 > 100 µM | LOX IMVI > 100 µM | Malme-3M > 100 µM | SNB-19 > 100 µM | DU-145 > 100 µM | SW-620 > 100 µM | T47D > 100 µM | SNB-75 3.34 µM | M14 > 100 µM | 786-0 81.8 µM | UO-31 > 100 µM | HL-60 > 100 µM | HCT-116 5.65 µM | NCI-H226 > 100 µM | SN12C > 100 µM | MOLT-4 > 100 µM | ACHN 54 µM | SR > 100 µM | NCI-H23 > 100 µM | Hs-578T 5.41 µM | HOP-92 93.8 µM | U-251 > 100 µM | TK-10 > 100 µM | COLO 205 > 100 µM | K562 > 100 µM | UACC-257 19.3 µM | SF-295 15.2 µM
> 100 µM: HCT-15

Source: ChEMBL document CHEMBL1201862, “PubChem BioAssay data set” (2004)
